Results reported in patent US10550135B2, “Silicon incorporated quinolines with anti-malarial and anti-toxoplasmosis activity” (Council of Scientific & Industrial Research, priority 2016, dated 2020).

What was measured:
T. gondii = test: Anti-toxoplasma screening, luciferase-expressing T. gondii (TgLuc+) in HFF cells, luminescence; type: cell-based; conditions: for inhibition at 10 µM: 48 h, primary screen, TgLuc+ tachyzoites in HFF cells, 2 days
Protocol: (§1) • a) Anti-malarial screening: Plasmodium falciparum (3D7; Malaria Research and Reference Reagent Resource Center ID NO: MRA-102) is cultured in the laboratory as per standard protocols [Moll et. al. 2008]. Briefly, P. falciparum is cultured using 2% hematocrit washed RBCs, separated from freshly collected human blood, in RPMI media containing glutamine, sodium bicarbonate and antibiotics. Parasites are routinely synchronized using 5% sorbitol treatment. Anti-malarial screens are carried out in two stages: 1) a primary screen at a fixed concentration of 10 μM to find out % inhibition of growth; and 2) a dose assay for finding out the IC50 of hits identified from the primary screen. In both assays the following steps are followed. 200 μL's of the diluted parasite culture (2% parasitemia and 2% hematocrit; at late ring stage), is added to each well in a 96 well plate pre-seeded with the compound of interest at the required concentration of 10 μM. The master stocks and dilutions of the compounds are prepared in cell culture grade DMSO. NOTE: DMSO only treatment control is done and the results are used for normalizing the data obtained from compound treatment. All compounds are plated in triplicates. Each 96 well plate also includes negative control (compound untreated culture) and positive control (standard anti-malarial treated culture). Standard anti-malarials used are chloroquine, artemisinine and atovaquone, each at 1 μM concentration. After plating, the culture is incubated in standard growth condition for 60 hours, after which the cultures are processed for testing the effect of compounds on parasite growth using SybrGreen staining and fluorescence measurements at 520 nm emission following excitation at 498 nm. Since only the parasites have DNA (as RBCs are devoid of nucleus), the SybrGreen signal is a direct indictor of parasite density in respective samples. Results are used to quantifying relative parasite growth (or conversely % inhibition of growth) in untreated, standard anti-malarial treated and test molecules treated P. falciparum cultures. Compounds showing greater than 80% reduction in parasitemia are selected from this primary screening for carrying out dose response analysis using the respective test molecules from 10 μM to 1 nM dilution series. Data from this experiment is used for the calculation of IC50 values for the respective test molecules. • b) Anti-toxoplasma screening: For screening bioactivity of test molecules against T. gondii, a transgenic line of the parasite expressing the luciferase gene is used. The parental parasite used to generate the TgLuc+ strain is a Type I (RH) virulent strain (ATCC reference 50174D), which can also be used for in vivo studies in mice, if needed. The tachyzoite stage of the parasites are routinely cultured in the laboratory using standard protocols [Roos et al., 1994. In brief, a confluent monolayer of Human Foreskin Fibroblast (HFF; ATCC reference SCRS-1041) cells in culture are used as the host cells for infection with tachyzoite stage T. gondii. The culture media used to grow parasites is standard complete DMEM (Gibco BRL, USA) containing glucose (5.5 mM), glutamine (2 mM), Hepes (25 mM) and 1% dialyzed bovine fetal calf serum (Gibco BRL, USA). For bioactivity assays, the HFF cells are grown in 96 well plates and each well is infected with 1×10^4 TgLuc+ parasitesin the presence of 10 μM of test molecules (in primary screens) in a total volume of 200 μL. After 2 days of incubation and growth in a 37° C. incubator maintaining 5% CO2, the 96 well plates are processed for luminescence measurements using the reagents in the luciferase assay kit (Promega, USA). […]

[1] = system: Plasmodium falciparum (3D7); test: Anti-malarial screening, P. falciparum 3D7 growth in human RBC culture, SybrGreen fluorescence; type: cell-based; conditions: for inhibition at 10 µM: primary screen, 3D7, 60 hours; for EC50: dose response, 10 μM to 1 nM dilution series, 3D7
Protocol: as §1

For `C[Si]1(C)CCN(Cc2ccc(-c3cc(C(=O)NCCN4CCCC4)c4cc(F)ccc4n3)cc2)CC1` [NDS 100950, 2-(4-((4,4-dimethyl-1,4-azasilinan-1-yl)methyl)phenyl)-6-fluoro-N-(2-(pyrrolidin-1-yl)ethyl)quinoline-4-carboxamide], the inhibition at 10 µM (T. gondii) was 95.2%, the EC50 (T. gondii; HFF, dose response, 10 μM to 1 nM dilution series) was 3940 nM and the inhibition at 10 µM [1] was 95.7%. The EC50 [1] was 60 nM.
Compound `C[Si]1(C)CCN(Cc2ccc(-c3cc(C(=O)NCCN4CCOCC4)c4cc(F)ccc4n3)cc2)CC1` [NDS 101008, 2-(4-((4,4-dimethyl-1,4-azasilinan-1-yl)methyl)phenyl)-6-fluoro-N-(2-morpholinoethyl)quinoline-4-carboxamide] has an inhibition at 10 µM (T. gondii) of 3%, an inhibition at 10 µM [1] of 95.9% and an EC50 [1] of 1260 nM.
Compound `C[Si]1(C)CCN(CCNC(=O)c2cc(-c3ccc(CN4CCOCC4)cc3)nc3ccc(F)cc23)CC1` [NDS 100951, N-(2-(4,4-dimethyl-1,4-azasilinan-1-yl)ethyl)-6-fluoro-2-(4-(morpholinomethyl)phenyl)quinoline-4-carboxamide] has an inhibition at 10 µM (T. gondii) of 21.8%, an inhibition at 10 µM [1] of 93.6% and an EC50 [1] of 50 nM.
In the case of `CN1CCN(CCNC(=O)c2cc(-c3ccc(CN4CC[Si](C)(C)CC4)cc3)nc3ccc(F)cc23)CC1` [NDS 101075, 2-(4-((4,4-dimethyl-1,4-azasilinan-1-yl)methyl)phenyl)-6-fluoro-N-(2-(4-methylpiperazin-1-yl)ethyl)quinoline-4-carboxamide], the inhibition at 10 µM [1] is reported as 95.2% and the EC50 [1] is reported as 403 nM.
For `C[Si]1(C)CCN(Cc2ccc(-c3cc(C(=O)Nc4ccccn4)c4cc(F)ccc4n3)cc2)CC1` [NDS 101009, 2-(4-((4,4-dimethyl-1,4-azasilinan-1-yl)methyl)phenyl)-6-fluoro-N-(pyridin-2-yl)quinoline-4-carboxamide], the inhibition at 10 µM (T. gondii) was 31%, the inhibition at 10 µM [1] was 97.1% and the EC50 [1] was 810 nM.
`C[Si]1(C)CCN(C(=O)c2cc(-c3ccc(CN4CCOCC4)cc3)nc3ccc(F)cc23)CC1` [NDS 101006, (4,4-dimethyl-1,4-azasilinan-1-yl)(6-fluoro-2-(4-(morpholinomethyl)phenyl)quinolin-4-yl)methanone] was tested, and the inhibition at 10 µM (T. gondii) was 0% and the inhibition at 10 µM [1] was 1.87%.
`C[Si]1(C)CCN(Cc2ccc(-c3cc(C(=O)NCCN4CCCCC4)c4cc(F)ccc4n3)cc2)CC1` [NDS 101074, 2-(4-((4,4-dimethyl-1,4-azasilinan-1-yl)methyl)phenyl)-6-fluoro-N-(2-(piperidin-1-yl)ethyl)quinoline-4-carboxamide] gave an inhibition at 10 µM [1] of 78.8% and an EC50 [1] of 112 nM.
`C[Si](C)(C)CCNC(=O)c1cc(-c2ccc(CN3CCOCC3)cc2)nc2ccc(F)cc12` [NDS 101037, 6-fluoro-2-(4-(morpholinomethyl)phenyl)-N-(2-(trimethylsilyl)ethyl)quinoline-4-carboxamide] gave an inhibition at 10 µM (T. gondii) of 45% and an inhibition at 10 µM [1] of 9.16%.
Compound `C[Si]1(C)CCN(Cc2ccc(-c3cc(C(=O)NCCN4CCSCC4)c4cc(F)ccc4n3)cc2)CC1` [NDS 101077, 2-(4-((4,4-dimethyl-1,4-azasilinan-1-yl)methyl)phenyl)-6-fluoro-N-(2-thiomorpholinoethyl)quinoline-4-carboxamide] has an inhibition at 10 µM [1] of 95.5% and an EC50 [1] of 950 nM.
`C[Si]1(C)CCN(Cc2ccc(-c3cc(C(=O)N4CCOCC4)c4cc(F)ccc4n3)cc2)CC1` [NDS 101007, (2-(4-((4,4-dimethyl-1,4-azasilinan-1-yl)methyl)phenyl)-6-fluoroquinolin-4-yl)(morpholino)methanone] was tested, and the inhibition at 10 µM (T. gondii) was 3% and the inhibition at 10 µM [1] was 2.79%.
In the case of `C[Si]1(C)CCN(Cc2ccc(-c3cc(C(=O)NCCO)c4cc(F)ccc4n3)cc2)CC1` [NDS 101076, 2-(4-((4,4-dimethyl-1,4-azasilinan-1-yl)methyl)phenyl)-6-fluoro-N-(2-hydroxyethyl)quinoline-4-carboxamide], the inhibition at 10 µM [1] is reported as 81.4% and the EC50 [1] is reported as 6120 nM.
